How the values were obtained:
primary keratinocytes = test: % change in live cells vs DMSO control; higher = less cytotoxic; conditions: time (h post treatment): 20
Description: (§1)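 Cytotoxicity in uninfected 2D primary donor keratinocytes (20 h post treatment) and fibroblasts (48 h post treatment), measured with NucSpot live/dead dyes on IncuCyte. Live cells are normalised to the 0.2% DMSO control and shown as % change. Three biological replicates for each of donors 3, 4 and 5.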

[1] = tested on: primary dermal fibroblasts; test: as above; conditions: time (h post treatment): 48
Description: as §1

[2] = tested on: HSV-1 K26-GFP infected 3D skin equivalent; test: % activity on HSV-1 GFP signal (0 = infected DMSO control, -100 = uninfected control); higher = higher signal (negative = inhibition / toxicity); conditions: time (h post infection): 48
Description: (§2)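 Triplicate dose-response (0.04 to 10 uM) of 11 top compounds in 3D bioprinted skin equivalents (submerged and ALI models) infected with GFP-HSV-1 K26 at MOI 0.1 and fixed at 48 hpi. GFP (virus) and tdTomato (fibroblast viability) signals are normalised to per-plate controls.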

[3] = tested on: HSV-1 K26-GFP infected primary human skin cells; test: % change of HSV-1 GFP signal vs untreated infected cells; higher = less antiviral inhibition
Description: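 2D primary donor-derived keratinocytes (read at 20 hpi) and donor-matched dermal fibroblasts (read at 48 hpi) infected with GFP-HSV-1 K26 at MOI 1 and treated 1 h later with compound dilutions. IncuCyte GFP integrated intensity is normalised by subtracting mock-infected wells and dividing by untreated infected wells, shown as % change (-100 = full inhibition).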

[4] = tested on: HSV-1 K26-GFP infected 3D skin equivalent; test: % change of tdTomato fibroblast signal relative to infected DMSO control; higher = higher signal (negative = inhibition / toxicity); conditions: time (h post infection): 48
Description: as §2

O=C(/C=C\n1cnc(-c2cc(C(F)(F)F)cc(C(F)(F)F)c2)n1)NNc1ccccn1 [Verdinexor]
Conditions | % activity on HSV-1 GFP signal, [2] [%] | % change in live cells, [1] [%] | % change in live cells, primary keratinocytes [%] | % change of tdTomato fibroblast signal, [4] [%]
0.041152 µM, model: ALI | 22.5 | – | – | 8.09
0.041152 µM, model: submerged | -2.17 | – | – | 8.73
0.082305 µM, donor: 3 | – | -24 | -11 | –
0.082305 µM, donor: 4 | – | -8.33 | -9 | –
0.082305 µM, donor: 5 | – | -0.667 | -5.67 | –
0.123457 µM, model: ALI | -30.1 | – | – | -4.16
0.123457 µM, model: submerged | -37 | – | – | -8.13
0.246914 µM, donor: 3 | – | -20.3 | -23.3 | –
0.246914 µM, donor: 4 | – | -9.67 | -17 | –
0.246914 µM, donor: 5 | – | -6.33 | -12.7 | –
0.37037 µM, model: ALI | -82.5 | – | – | -13.3
0.37037 µM, model: submerged | -41.1 | – | – | -4.26
0.740741 µM, donor: 3 | – | -22.3 | -38.7 | –
0.740741 µM, donor: 4 | – | -14 | -12 | –
0.740741 µM, donor: 5 | – | -10.7 | -16.7 | –
1.111111 µM, model: ALI | -92.6 | – | – | -11.7
1.111111 µM, model: submerged | -56.4 | – | – | -2.44
2.22222 µM, donor: 3 | – | -23.3 | -44.3 | –
2.22222 µM, donor: 4 | – | -9.67 | -32 | –
2.22222 µM, donor: 5 | – | -15.7 | -23.3 | –
3.33333 µM, model: ALI | -105 | – | – | -19.1
3.33333 µM, model: submerged | -65.7 | – | – | -1.43
6.66667 µM, donor: 3 | – | -24.7 | -60.3 | –
6.66667 µM, donor: 4 | – | -11 | -42.3 | –
6.66667 µM, donor: 5 | – | -18.7 | -31.7 | –
10 µM, model: ALI | -108 | – | – | -6.29
10 µM, model: submerged | -68.6 | – | – | -5.83
20 µM, donor: 3 | – | -27.7 | -68.3 | –
20 µM, donor: 4 | – | -13.3 | -74.7 | –
20 µM, donor: 5 | – | -23.7 | -74 | –
60 µM, donor: 3 | – | -40.3 | -75.3 | –
60 µM, donor: 4 | – | -31.3 | -86.7 | –
60 µM, donor: 5 | – | -44 | -82 | –

% change of HSV-1 GFP signal [%], [3]
Conditions | 0.001 µM | 0.003 µM | 0.0091 µM | 0.0274 µM | 0.0823 µM | 0.2469 µM | 0.7407 µM | 2.2222 µM | 6.6667 µM | 20 µM
cell type: primary dermal fibroblasts, donor: 5, time (h post infection): 48 | -15.5 | -14.5 | -9.81 | -15.2 | -14.8 | -16.9 | -28.1 | -45.5 | -46.8 | -46.5
cell type: primary keratinocytes, donor: 3, time (h post infection): 20 | 17.4 | 18.1 | 8.7 | 2.9 | 12.9 | 9.98 | -22.6 | -68.6 | -87.6 | -92
cell type: primary keratinocytes, donor: 4, time (h post infection): 20 | -13.1 | -10.8 | -21.9 | -29.6 | -15.4 | -22.4 | -47.4 | -82.8 | -95.8 | -97.6
cell type: primary keratinocytes, donor: 5, time (h post infection): 20 | 6.47 | 3.84 | 3.12 | 6.11 | 10.5 | 3.84 | 8.2 | -36.4 | -76.6 | -94.9

From the supplement of paper PMC12533247
